Results on one molecule are retold here after publication PMC11948302, “OATP1B-type Transport Function Is a Determinant of Aromatase Inhibitor–Associated Arthralgia Susceptibility” (Cancer Research Communications, 2025).

Data set [1] can be described thus: In vivo pharmacokinetic studies in mice (plasma and liver, LC/MS-MS). As to conditions: for AUC fold change vs. WT / AUC(0-t) / Cmax: exemestane 20 mg/kg oral; for AUC fold change vs. WT: 95% confidence interval; for AUC(0-t) / Cmax: female, FVB, mouse, plasma, po, 20 mg/kg, mean with SEM; for AUC(0-t): AUC0–6h.
Method: The analysis was conducted using a Vanquish UHPLC aligned with a Quantiva triple-stage quadrupole mass spectrometer (Thermo Fisher Scientific). An ACQUITY UPLC BEH C18 Column (130 Å, 1.7 μm, 2.1 mm × 50 mm, Waters Co.) protected by ACQUITY UPLC BEH Shield RP18 VanGuard Pre-column (130 Å, 1.7 μm, 2.1 mm × 5 mm, Waters Co.) was used for analyte separation. The injection volume of the sample was 10 μL. The temperature of the column was kept at 40°C, whereas the autosampler rack was kept at 4°C. The mobile phase consisted of solvent A, which was a solution of 0.1% acetic acid in LC/MS-grade water, and solvent B, which was a solution of 0.1% formic acid in acetonitrile. The total run time was 4.5 minutes. The following were the gradient conditions: 0.3 mL/minutes was the flow rate for the following intervals: 0 to 0.5 minutes, 30% B; 0.5 to 3.0 minutes, 30% to 95% B; 3.0 to 4.0 minutes, 95% B; and 4.001 to 4.5 minutes, 95% to 30% B. The vaporizer was adjusted to 360°C, and the ion transfer tube temperature was 340°C. The mass spectrometry assay was configured with a positive voltage of 3600 V delivered to the ESI capillary. The collision gas utilized was argon, with a pressure of 1.5 mTorr. The mass spectrometer was set up with the following optimized parameters: 1 arbitrary unit (Arb) for sweep gas, 5 Arb for auxiliary gas, and 25 Arb for sheath gas. […] The accuracy, expressed as a percent bias varied from −7.80% to 5.10%, whereas the inter-assay and intra-assay precisions ranged from 2.19% to 7.09% according to the results of assay validation tests. The lower limit of quantification was 0.4 ng/mL.
Letrozole was quantified using an LC/MS-MS method described previously ([14]). A Vanquish UHPLC and Quantiva triple-stage quadrupole mass spectrometer (Thermo Fisher Scientific) were used in the analysis. Analytes were separated chromatographically using a C18 AQUASIL guard cartridge (2.1 mm × 10 mm, 3 μm; Thermo Fisher Scientific) and an Accucore aQ column (50 mm × 2.1 mm, 2.6 μm). The temperature of the column was set at 40°C, whereas the autosampler was kept at 4°C. The mobile phase consisted of solvent A, which was a solution of 0.1% acetic acid in LC/MS-grade water, and solvent B, which was a solution of 0.1% formic acid in acetonitrile. A gradient elution method was employed for 5.0 minutes, with a flow rate of 0.4 mL/minutes. […] Injections were performed using 3 μL of the extracted samples. The mass spectrometer parameters were optimized and configured as follows: 25 Arb for sheath gas, 5 Arb for auxiliary gas, and 1 Arb for sweep gas. The temperature of the ion transfer tube and vaporizer was adjusted to 340°C and 360°C, respectively. Argon was used as the collision gas at a pressure of 1.5 mTorr. […] The lower limit of quantification was 5 ng/mL.
Female wild-type, Oatp1a/1b cluster-knockout mice [Oatp1a/1b^(−/−) mice] and Oatp1a/1b^(−/−) mice with transgenic hepatic expression of OATP1B1 [OATP1B1^(tg) mice] or OATP1B3 [OATP1B3^(tg) mice] were all on an FVB background (RRID: IMSR_T000141), and experimental groups were age- and weight-matched for each experiment. Female mice with a deficiency of all Cyp3a isoforms [Cyp3a^(−/−)] were similarly matched with FVB wild-type mice. All mice were bred in-house. Littermates of the same sex and genotype were housed in groups of maximally five animals in a temperature- and light-controlled environment (12-hour light/dark cycles) in cages lined with absorbent bedding. Mice were given free access to standard food and water.
For in vivo pharmacokinetic studies, mice were randomized into experimental groups of equal size.
Another data set relates to patients. As to conditions: 25 mg three times a week vs 25 mg daily, randomized phase III; cited from earlier work.

As for `C=C1C[C@@H]2[C@H](CC[C@]3(C)C(=O)CC[C@@H]23)[C@@]2(C)C=CC(=O)C=C12` [Exemestane], the “AUC fold change vs. WT” value in data set [1] (OATP1B3^(tg) vs wild-type mice) is listed as 2.27 (1.49–3.44); in data set [1] (Oatp1a/1b^(−/−) vs wild-type mice), 2.25 (1.60–3.18). Further, the results for the area under the curve AUC(0-t) in data set [1] (OATP1B3^(tg) female mice), in data set [1] (Oatp1a/1b^(−/−) female mice) and in data set [1] (wild-type female mice) were 294 ng·h/mL, 292 ng·h/mL and 130 ng·h/mL, respectively. For the same molecule, the Cmax came out at 152 ng/mL in data set [1] (OATP1B3^(tg) female mice), 159 ng/mL in data set [1] (Oatp1a/1b^(−/−) female mice) and 94 ng/mL in data set [1] (wild-type female mice). Besides, in data set [1] (single oral dose, letrozole 10 mg/kg or exemestane 20 mg/kg), the “liver levels, wild-type vs Oatp1a/1b^(−/−) mice” value was “higher levels”. The “liver concentrations in OATP1B1^(tg) or OATP1B3^(tg) mice” value in data set [1] (single oral dose, letrozole 10 mg/kg or exemestane 20 mg/kg, relative to Oatp1a/1b^(−/−) and wild-type) is recorded as “partially restored”. The “suppression of estrogen levels and reduction of breast cancer tissue proliferation, intermittent vs standard daily dosing” value in the data set on patients is recorded as “non-inferior”.

As usually defined, the AUC(0-t) is exposure summed from dosing to a finite time, without extrapolation to infinity. Read a high AUC(0-t) as more exposure. As a reminder, the Cmax is the maximum level reached in the sampled fluid or tissue.
